Laboratory results: the NIST ThermoML archive (doi:10.1016/j.tca.2012.04.033)
± gives the expanded uncertainty stated by the source.

How the values were obtained:
[1] = refractive index (Na D-line) (dimensionless); xn = mol fraction of the nth substance listed; conditions: 101 kPa, Liquid, Standard Abbe refractometry
[2] = xn = mol fraction of the nth substance listed; conditions: 101 kPa, Liquid, Vibrating tube method
[3] = Crystal; DTA

With `C[Si](O[Si](C)(c1ccccc1)c1ccccc1)(c1ccccc1)c1ccccc1` [1,3-dimethyl-1,1,3,3-tetraphenyldisiloxane] + CC(C)O the refractive index ([1]; 303.15 K, x1 = 0.00125) was 1.37416 ± 0.00033, the refractive index ([1]; 303.15 K, x1 = 0.00359) was 1.37721 ± 0.00033 and the refractive index ([1]; 303.15 K, x1 = 0.00759) was 1.38094 ± 0.00035. It also gave a refractive index ([1]; 303.15 K, x1 = 0.01218) of 1.38528 ± 0.00035, a refractive index ([1]; 303.15 K, x1 = 0.01284) of 1.38568 ± 0.00035 and a mass density ([2]; 303.15 K, x1 = 0.00125) of 778.65 ± 0.18 kg/m3. The mass density ([2]; 303.15 K, x1 = 0.00359) was 783.03 ± 0.19 kg/m3, the mass density ([2]; 303.15 K, x1 = 0.00759) was 788.42 ± 0.23 kg/m3 and the mass density ([2]; 303.15 K, x1 = 0.01218) was 794.61 ± 0.23 kg/m3. It also gave a mass density ([2]; 303.15 K, x1 = 0.01284) of 795.14 ± 0.23 kg/m3.
In the case of `C[Si](O[Si](C)(c1ccccc1)c1ccccc1)(c1ccccc1)c1ccccc1` [1,3-dimethyl-1,1,3,3-tetraphenyldisiloxane] + CCO, the refractive index ([1]; 298.15 K, x1 = 0.0009) is reported as 1.36085 ± 0.00033, the refractive index ([1]; 298.15 K, x1 = 0.00225) is reported as 1.36263 ± 0.00033 and the refractive index ([1]; 298.15 K, x1 = 0.00446) is reported as 1.36586 ± 0.00034. The refractive index ([1]; 298.15 K, x1 = 0.00667) was 1.36893 ± 0.00036, the refractive index ([1]; 298.15 K, x1 = 0.00825) was 1.37139 ± 0.00037 and the refractive index ([1]; 298.15 K, x1 = 0.01059) was 1.37427 ± 0.00039. It also gave a refractive index ([1]; 298.15 K, x1 = 0.01252) of 1.37693 ± 0.00042, a mass density ([2]; 298.15 K, x1 = 0.0009) of 787.37 ± 0.18 kg/m3 and a mass density ([2]; 298.15 K, x1 = 0.00225) of 789.76 ± 0.19 kg/m3. The mass density ([2]; 298.15 K, x1 = 0.00446) was 794.07 ± 0.22 kg/m3, the mass density ([2]; 298.15 K, x1 = 0.00667) was 798.07 ± 0.26 kg/m3 and the mass density ([2]; 298.15 K, x1 = 0.00825) was 801.34 ± 0.28 kg/m3. For the same compound, the mass density ([2]; 298.15 K, x1 = 0.01059) was 805.13 ± 0.32 kg/m3 and the mass density ([2]; 298.15 K, x1 = 0.01252) was 808.66 ± 0.38 kg/m3.
`C[Si](O[Si](C)(c1ccccc1)c1ccccc1)(c1ccccc1)c1ccccc1` [1,3-dimethyl-1,1,3,3-tetraphenyldisiloxane] + CO showed a refractive index ([1]; 298.15 K, x1 = 0.00036) of 1.3274 ± 0.00033, a refractive index ([1]; 298.15 K, x1 = 0.0009) of 1.3287 ± 0.00033 and a refractive index ([1]; 298.15 K, x1 = 0.0018) of 1.33084 ± 0.00033. It also gave a refractive index ([1]; 298.15 K, x1 = 0.00241) of 1.33228 ± 0.00034, a refractive index ([1]; 298.15 K, x1 = 0.00364) of 1.33509 ± 0.00035 and a mass density ([2]; 298.15 K, x1 = 0.00036) of 787.68 ± 0.18 kg/m3. It also gave a mass density ([2]; 298.15 K, x1 = 0.0009) of 789.17 ± 0.18 kg/m3, a mass density ([2]; 298.15 K, x1 = 0.0018) of 791.71 ± 0.19 kg/m3 and a mass density ([2]; 298.15 K, x1 = 0.00241) of 793.31 ± 0.2 kg/m3. It also gave a mass density ([2]; 298.15 K, x1 = 0.00364) of 796.57 ± 0.23 kg/m3.
`C[Si](O[Si](C)(c1ccccc1)c1ccccc1)(c1ccccc1)c1ccccc1` [1,3-dimethyl-1,1,3,3-tetraphenyldisiloxane] + CCCO showed a refractive index ([1]; 303.15 K, x1 = 0.00161) of 1.38273 ± 0.00033, a refractive index ([1]; 303.15 K, x1 = 0.00428) of 1.38545 ± 0.00035 and a refractive index ([1]; 303.15 K, x1 = 0.00956) of 1.39061 ± 0.00043. The refractive index ([1]; 303.15 K, x1 = 0.01076) was 1.39176 ± 0.00045, the refractive index ([1]; 303.15 K, x1 = 0.01339) was 1.39425 ± 0.0005 and the mass density ([2]; 303.15 K, x1 = 0.00161) was 797.94 ± 0.18 kg/m3. For the same compound, the mass density ([2]; 303.15 K, x1 = 0.00428) was 801.12 ± 0.25 kg/m3, the mass density ([2]; 303.15 K, x1 = 0.00956) was 808.9 ± 0.42 kg/m3 and the mass density ([2]; 303.15 K, x1 = 0.01076) was 810.51 ± 0.46 kg/m3. For the same compound, the mass density ([2]; 303.15 K, x1 = 0.01339) was 813.97 ± 0.56 kg/m3.
Compound `C[Si](O[Si](C)(c1ccccc1)c1ccccc1)(c1ccccc1)c1ccccc1` [1,3-dimethyl-1,1,3,3-tetraphenyldisiloxane] has a Normal melting temperature [3] of 49.70 ± 0.4 °C.
Work on `C[Si](O[Si](C)(c1ccccc1)c1ccccc1)(c1ccccc1)c1ccccc1` [1,3-dimethyl-1,1,3,3-tetraphenyldisiloxane] + C[Si]1(C)O[Si](C)(C)O[Si](C)(C)O[Si](C)(C)O1 yielded a refractive index ([1]; 303.15 K, x1 = 0.00724) of 1.39358 ± 0.00031, a refractive index ([1]; 303.15 K, x1 = 0.01526) of 1.39553 ± 0.00032 and a refractive index ([1]; 303.15 K, x1 = 0.02752) of 1.3985 ± 0.00033. The refractive index ([1]; 303.15 K, x1 = 0.04184) was 1.40193 ± 0.00035, the refractive index ([1]; 303.15 K, x1 = 0.05492) was 1.40505 ± 0.00037 and the mass density ([2]; 303.15 K, x1 = 0.00724) was 946.03 ± 0.13 kg/m3. The mass density ([2]; 303.15 K, x1 = 0.01526) was 947.52 ± 0.14 kg/m3, the mass density ([2]; 303.15 K, x1 = 0.02752) was 949.77 ± 0.15 kg/m3 and the mass density ([2]; 303.15 K, x1 = 0.04184) was 952.36 ± 0.17 kg/m3. For the same compound, the mass density ([2]; 303.15 K, x1 = 0.05492) was 954.7 ± 0.2 kg/m3.
